Experimental data: ChEMBL document CHEMBL1201862, “PubChem BioAssay data set” (2004)
The source made the active and inactive calls. Rule as the data show it, for most assays here: actives have a measured EC50 and inactives only a lower limit.

Assays:
[1] = Luminescence Cell-Based Dose Confirmation HTS to Identify Inhibitors of Polyadenylation.; type: functional
[2] = biological target: Glyceraldehyde-3-phosphate dehydrogenase (Homo sapiens, UniProt P04406)
[3] = biological target: T1, Bcl-2-related protein A1 (Mus musculus, UniProt Q07440); test: small-molecule antagonists of Bfl-1/BH3 interaction – biochemical, TR-FRET, mouse Bfl-1, confirmation (AID 621);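 also: TR-FRET binding of GST-Bfl-1 to FITC-labelled Bid peptide via terbium antibody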
T1 sequence (Q07440 whole entry): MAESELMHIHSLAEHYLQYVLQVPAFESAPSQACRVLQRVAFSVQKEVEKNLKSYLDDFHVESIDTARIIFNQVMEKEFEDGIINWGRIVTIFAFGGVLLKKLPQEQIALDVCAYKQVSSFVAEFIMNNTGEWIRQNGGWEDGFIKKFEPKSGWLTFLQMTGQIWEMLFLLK

[4] = biological target: T1, Bcl-2-related protein A1; test: Bfl-1 binding inhibitors, SAR follow-up, biochemical, fluorescence polarization (AID 1070)
[5] = Luminescence Cell-Based Dose Response to Identify Activators of 5'UTR Stem-Loop Driven Prion Protein mRNA Translation in H4-C Neuroglioblastoma Cells. [Related pubchem assays: 1829 (Project Summary), 1814 (Primary HTS)]; type: functional
[6] = Luminescence Cell-Based Dose Response HTS to Identify Activators of Luciferase Translation or Activity in H4 […] Cells. [Related pubchem assays: 1829 (Project Summary), 1814 (Primary HTS)]; type: functional
[7] = system: H4; test: Luminescence Cell-Based Dose Response HTS to Identify Activators of 5'UTR Stem-Loop Driven Prion Protein mRNA Translation in H4 Neuroglioblastoma Cells. [Related pubchem assays: 1829 (Project Summary), 1814 (Primary HTS)]; type: functional; conditions: Homo sapiens
[8] = Luminescence Cell-Based Dose Response to Identify Activators of Luciferase Translation or Activity in H4-C Neuroglioblastoma Cells. [Related pubchem assays: 1829 (Project Summary), 1814 (Primary HTS)]; type: functional
[9] = Luminescence Cell-Based Dose Confirmation to Identify Activators of 5'UTR Stem-Loop Driven Alpha-Synuclein mRNA Translation in H4 Neuroglioblastoma Cells. [Related pubchem assays: 1829 (Project Summary), 1814 (Primary HTS)]; type: functional
[10] = biological target: T2, Long-chain-fatty-acid--AMP ligase FadD28 (Mycobacterium tuberculosis, UniProt P9WQ59); test: Fluorescence polarization aasay to screen for inhibitors that compete for the binding of FadD28 to a bisubstrate Measured in Biochemical System Using Plate Reader - 2147-01_Inhibitor_Dose_CherryPick_Activity.; type: functional, Mycobacterium tuberculosis H37Rv
T2 sequence (P9WQ59 whole entry): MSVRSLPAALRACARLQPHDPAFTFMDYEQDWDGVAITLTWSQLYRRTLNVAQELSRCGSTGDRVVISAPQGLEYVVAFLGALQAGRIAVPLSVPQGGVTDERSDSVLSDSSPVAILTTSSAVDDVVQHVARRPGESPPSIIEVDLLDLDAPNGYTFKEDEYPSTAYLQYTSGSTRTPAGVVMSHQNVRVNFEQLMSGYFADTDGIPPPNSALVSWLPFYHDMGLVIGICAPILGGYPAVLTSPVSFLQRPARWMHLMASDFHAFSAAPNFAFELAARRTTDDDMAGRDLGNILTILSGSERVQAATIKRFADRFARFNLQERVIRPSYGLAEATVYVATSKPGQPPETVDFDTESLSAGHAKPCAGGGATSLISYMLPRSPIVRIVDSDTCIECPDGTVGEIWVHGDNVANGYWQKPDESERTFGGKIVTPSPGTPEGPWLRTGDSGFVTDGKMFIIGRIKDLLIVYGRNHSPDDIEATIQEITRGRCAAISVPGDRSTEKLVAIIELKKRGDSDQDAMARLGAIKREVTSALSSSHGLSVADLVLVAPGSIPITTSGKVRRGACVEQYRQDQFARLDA

Chain of Glyceraldehyde-3-phosphate dehydrogenase (P04406 whole entry): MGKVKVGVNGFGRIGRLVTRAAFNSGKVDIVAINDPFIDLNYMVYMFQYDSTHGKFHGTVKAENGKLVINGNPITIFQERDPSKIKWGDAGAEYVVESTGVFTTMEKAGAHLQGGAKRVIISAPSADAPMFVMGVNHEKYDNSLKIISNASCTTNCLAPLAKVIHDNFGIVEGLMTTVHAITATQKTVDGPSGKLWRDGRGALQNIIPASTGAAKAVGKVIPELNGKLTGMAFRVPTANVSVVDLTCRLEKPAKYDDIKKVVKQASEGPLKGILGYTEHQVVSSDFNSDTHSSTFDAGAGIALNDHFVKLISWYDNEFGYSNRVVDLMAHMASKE

C/C(=N\NC(=O)COc1ccc(C)cc1[N+](=O)[O-])c1cccs1
EC50 [1]: > 120000 nM (not active)

CCN1CCN(C2=C(Cl)C(=O)N(c3ccc([N+](=O)[O-])cc3)C2=O)CC1
IC50 [2]: > 100000 nM (not active) | IC50 [3]: 830 nM (active) | IC50 [4]: 565 nM (active)

O=C(O)c1ccc(N/N=C/C(Br)=C/c2ccccc2)cc1
EC50 [5]: 316 nM (active) | EC50 [6]: < 100 nM (active) | EC50 [7]: 7200 nM (active) | EC50 [8]: 368 nM (active) | EC50 [9]: 425 nM (active) | AC50 [10]: > 100000 nM (inactive)
